One assay concerns the target T1, HDAC6 (Homo sapiens, UniProt Q9UBN7).
T1 construct: purchased Reaction Biology
T1 sequence (Q9UBN7 1-1215): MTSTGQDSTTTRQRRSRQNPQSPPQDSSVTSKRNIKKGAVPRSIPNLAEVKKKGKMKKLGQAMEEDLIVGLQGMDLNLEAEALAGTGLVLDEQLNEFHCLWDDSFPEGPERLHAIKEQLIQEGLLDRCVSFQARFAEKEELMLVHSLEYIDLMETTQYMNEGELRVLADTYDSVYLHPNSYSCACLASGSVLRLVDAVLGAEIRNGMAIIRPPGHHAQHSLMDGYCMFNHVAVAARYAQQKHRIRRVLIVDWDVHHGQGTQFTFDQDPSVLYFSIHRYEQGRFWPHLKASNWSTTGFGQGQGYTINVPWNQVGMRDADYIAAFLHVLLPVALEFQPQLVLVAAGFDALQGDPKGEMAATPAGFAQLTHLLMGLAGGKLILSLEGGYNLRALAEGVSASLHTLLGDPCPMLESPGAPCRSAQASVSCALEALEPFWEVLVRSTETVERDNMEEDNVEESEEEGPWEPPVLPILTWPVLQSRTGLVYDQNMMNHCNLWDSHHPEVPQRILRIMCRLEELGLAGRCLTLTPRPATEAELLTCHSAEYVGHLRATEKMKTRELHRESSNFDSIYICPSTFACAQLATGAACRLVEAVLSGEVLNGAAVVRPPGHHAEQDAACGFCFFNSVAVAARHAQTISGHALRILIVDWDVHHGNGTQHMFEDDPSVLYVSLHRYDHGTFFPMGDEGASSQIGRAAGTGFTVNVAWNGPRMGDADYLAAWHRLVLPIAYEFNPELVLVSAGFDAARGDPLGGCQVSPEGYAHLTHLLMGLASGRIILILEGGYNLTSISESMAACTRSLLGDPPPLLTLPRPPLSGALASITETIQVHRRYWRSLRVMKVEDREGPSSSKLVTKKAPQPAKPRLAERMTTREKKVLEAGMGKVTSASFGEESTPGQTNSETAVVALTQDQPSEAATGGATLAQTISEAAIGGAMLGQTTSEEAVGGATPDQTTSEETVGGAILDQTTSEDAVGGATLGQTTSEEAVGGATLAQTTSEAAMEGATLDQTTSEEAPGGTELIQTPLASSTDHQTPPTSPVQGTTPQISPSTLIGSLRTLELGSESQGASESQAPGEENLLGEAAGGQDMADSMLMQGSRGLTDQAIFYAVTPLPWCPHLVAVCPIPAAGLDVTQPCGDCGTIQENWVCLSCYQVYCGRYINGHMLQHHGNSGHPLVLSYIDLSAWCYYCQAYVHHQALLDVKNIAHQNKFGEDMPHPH
Description: HDAC enzymatic assay (Reaction Biology), HDAC6. The assay is classed as biochemical. Particulars: 10-dose response curve; read-out: Compound IC50 (M), HDAC6. How it is done: (§1) Compound 1 was tested in an enzymatic assay from Reaction Biology® against 10 HDAC isoforms. The IC50 values were derived from a 10-dose response curve.
(§2) Base Reaction buffer: 50 mM Tris-HCl, pH8.0, 137 mM NaCl, 2.7 mM KCl, and 1 mM MgCl2, Add fresh: 1 mg/ml BSA, 1% DMSO
Fluorogenic HDAC General Substrate (HDAC1, HDAC2, HDAC3, HDAC6, HDAC10, and HDAC11): 50 μM, Arg-His-Lys-Lys(Ac)-AMC
(§3) 1. Delivered 2× enzyme in wells of reaction plate except in the control wells and added buffer to control wells. 2. Delivered compounds in 100% DMSO into the enzyme mixture by Acoustic technology (Echo550; nanoliter range). Spin down and pre-incubation. 3. Delivered 2× Substrate Mixture (Fluorogenic HDAC Substrate and co-factor if applicable) in all reaction wells to initiate the reaction. Spin and shake. 4. Incubated for 30 min for Class 2A, 1 h for HDAC1, 2, 3, and 6, and 2 h for the rest of HDAC isoforms and SIRTs at 30° C. with seal.
(§4) 5. Added Developer with Trichostatin A (or Nicotinamide for SIRTs) to stop the reaction and to generate fluorescent color. 6. The fluorescence that was generated was detected with excitation (Ex) at […] and emission (Em) at 460 nM by the EnVision Multilabel Plate Reader (PerkinElmer®, Santa Clara, Calif., USA).
(§5) IC50 values were derived from a 10-dose response curve.

Another assay has as its target T2, HDAC4 (Homo sapiens, UniProt P56524).
T2 construct: purchased Reaction Biology
The experiment in a line: HDAC enzymatic assay (Reaction Biology), HDAC4. The assay is classed as biochemical. As to conditions: summary of Table 1. How it is done: as §1, §2
Class2A Substrate (HDAC4, HDAC5, HDAC7, and HDAC9): Boc-Lys(trifluoroacetyl)-AMC
as §3, §4, §5

T2 sequence (P56524 whole entry): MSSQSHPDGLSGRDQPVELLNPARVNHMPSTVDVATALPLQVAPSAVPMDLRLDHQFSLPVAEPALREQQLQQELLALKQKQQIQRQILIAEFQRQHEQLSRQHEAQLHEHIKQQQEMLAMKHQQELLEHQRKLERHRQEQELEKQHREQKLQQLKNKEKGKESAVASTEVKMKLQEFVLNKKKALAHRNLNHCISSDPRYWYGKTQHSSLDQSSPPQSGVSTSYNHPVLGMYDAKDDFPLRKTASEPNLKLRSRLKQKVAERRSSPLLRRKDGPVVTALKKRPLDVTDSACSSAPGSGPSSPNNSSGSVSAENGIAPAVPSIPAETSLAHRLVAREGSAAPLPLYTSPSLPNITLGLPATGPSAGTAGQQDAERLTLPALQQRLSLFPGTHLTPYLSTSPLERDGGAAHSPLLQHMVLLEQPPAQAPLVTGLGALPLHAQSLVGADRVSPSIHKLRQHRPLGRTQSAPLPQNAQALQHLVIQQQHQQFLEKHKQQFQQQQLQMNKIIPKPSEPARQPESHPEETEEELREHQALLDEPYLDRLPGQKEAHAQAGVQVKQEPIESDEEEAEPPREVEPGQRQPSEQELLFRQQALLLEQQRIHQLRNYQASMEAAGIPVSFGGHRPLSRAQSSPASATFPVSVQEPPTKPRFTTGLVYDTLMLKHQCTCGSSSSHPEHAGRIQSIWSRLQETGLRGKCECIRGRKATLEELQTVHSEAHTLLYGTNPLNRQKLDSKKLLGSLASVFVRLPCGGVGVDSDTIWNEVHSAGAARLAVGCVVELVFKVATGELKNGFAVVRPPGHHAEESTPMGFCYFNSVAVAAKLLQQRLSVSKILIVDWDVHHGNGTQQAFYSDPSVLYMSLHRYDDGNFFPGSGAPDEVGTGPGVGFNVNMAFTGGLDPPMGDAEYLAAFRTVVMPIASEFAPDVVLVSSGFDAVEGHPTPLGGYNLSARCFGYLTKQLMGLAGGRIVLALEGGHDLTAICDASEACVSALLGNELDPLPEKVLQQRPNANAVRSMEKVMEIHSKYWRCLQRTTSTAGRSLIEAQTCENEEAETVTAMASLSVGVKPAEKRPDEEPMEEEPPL

For `O=C(/C=C/c1ccc(CN(CCOCCOCCNc2cccc3c2C(=O)N(C2CCC(=O)NC2=O)C3=O)CCc2c[nH]c3ccccc23)cc1)NO` (centres unmarked) [Compound 1, (E)-3-(4-(((2-(1H-indol-3-yl)ethyl)(2-(2-(2-((2-(2,6-dioxopiperidin-3-yl)-1,3-dioxoisoindolin-4-yl)amino)ethoxy)ethoxy)ethyl)amino)methyl)phenyl)-N-hydroxyacrylamide], the IC50 – broadly, the midpoint of a concentration-inhibition curve – on HDAC6 is 1.6e-07 M. Also, the “inhibition of enzymatic activity of HDAC4 (in words)” value against HDAC4 is “did not inhibit”.

These data come from patent US20220387604A1, “SELECTIVE DUAL HISTONE DEACETYLASE 6/8 (HDAC6/8) DEGRADERS AND METHODS OF USE THEREOF” (DANA-FARBER CANCER INSTITUTE, INC., priority 2019, published 2022).
